Patent publication US9302999B2, “Substituted triazoles as herbicides” (E. I. DU PONT DE NEMOURS AND COMPANY, priority 2012, dated 2016)

Key:
Waterhemp [1] = assay: Test C preemergence: waterhemp; format: in vivo; settings: 62 g ai/ha, scale of 0 to 100, 0 is no effect, 100 is complete control
Source text: (§1) Seeds of plant species selected from blackgrass (Alopecurus myosuroides), bromegrass, downy (downy bromegrass, Bromus tectorum), foxtail, green (green foxtail, Setaria viridis), ryegrass, Italian (Italian ryegrass, Lolium multiflorum), winter wheat (Triticum aestivum), wild oat (Avena fatua), galium (catchweed bedstraw, Galium aparine), bermudagrass (Cynodon dactylon), surinam grass (Brachiaria decumbens), cocklebur (common cocklebur, Xanthium strumarium), corn (Zea mays), large crabgrass (Digitaria sanguinalis), woolly cupgrass (Eriochloa villosa), foxtail, giant (giant foxtail, Setaria faberii), goosegrass (Eleusine indica), johnsongrass (Sorghum halepense), kochia (Kochia scoparia), lambsquarters (Chenopodium album), morningglory (Ipomoea coccinea), nightshade (eastern black nightshade, Solanum ptycanthum), nutsedge, yellow (yellow nutsedge, Cyperus esculentus), pigweed (Amaranthus retroflexus), ragweed (common ragweed, Ambrosia elation), soybean (Glycine max), common (oilseed) sunflower (Helianthus annuus), Russian thistle (Salsola kali) and velvetleaf (Abutilon theophrasti) were planted into a blend of loam soil and sand and treated preemergence with test chemicals formulated in a non-phytotoxic solvent mixture which included a surfactant.
(§2) Treated plants and controls were maintained in a greenhouse for 13 to 15 days, after which time all species were compared to controls and visually evaluated. Plant response ratings, summarized in Table C, are based on a scale of 0 to 100 where 0 is no effect and 100 is complete control. A dash (-) response means no test result.

corn (Zea mays) = assay: Test F pre-/postemergence: corn; format: in vivo
Source text: Seeds of plant species selected from corn (Zea mays), soybean (Glycine max), velvetleaf (Abutilon theophrasti), lambsquarters (Chenopodium album), poinsettia, wild (wild poinsettia, Euphorbia heterophylla), pigweed, palmer (palmer pigweed, Amaranthus palmeri), waterhemp (common waterhemp, Amaranthus rudis), surinam grass (Brachiaria decumbens), crabgrass, Brazil (Brazilian crabgrass, Digitaria horizontalis), panicum, fall (fall panicum Panicum dichotomiflorum), crabgrass, large (large crabgrass, Digitaria sanguinalis), foxtail, giant (giant foxtail, Setaria faberii), foxtail, green (green foxtail Setaria viridis), goosegrass (Eleusine indica), ragweed (common ragweed, Ambrosia elatior), barnyardgrass (Echinochloa crus-galli), sandbur (southern sandbur, Cenchrus echinatus), arrowleaf sida (Sida rhombifolia), ryegrass, Italian (Italian ryegrass, Lolium multiflorum), dayflower, VA (Virginia (VA) dayflower, Commelina virginica), field bindweed (Convolvulus arvensis), cocklebur (common cocklebur, Xanthium strumarium), morningglory (Ipomoea coccinea), nightshade (eastern black nightshade, Solanum ptycanthum), kochia (Kochia scoparia), nutsedge, yellow (yellow nutsedge, Cyperus esculentus), johnsongrass (Sorghum halepense), smartweed (ladysthumb smartweed, Polygonum persicaria), and beggarticks (hairy beggarticks, Bidens pilosa), were planted into a silt loam soil and treated preemergence with test chemicals formulated in a non-phytotoxic solvent mixture which included a surfactant. At the same time, plants selected from these crop and weed species and also pigweed (Amaranthus retroflexus), waterhemp_RES1 (ALS/Triazine resistant common waterhemp, Amaranthus rudis) and waterhemp_RES2 (ALS/HPPD resistant common waterhemp, Amaranthus rudis) were planted in pots containing a planting medium comprising spaghnum peat moss, vermiculite, wetting agent and starter nutrients treated with postemergence applications of some of the test chemicals formulated in the same manner. Plants ranged in height from 2 to 18 cm for postemergence treatments (1- to 4-leaf stage).
as §2, with “14” for “13”, “21” for “15”, “E,” for “C,”

Waterhemp [2] = assay: Test C preemergence: waterhemp; format: in vivo, Amaranthus rudis; settings: scale 0 to 100, 0 no effect, 100 complete control
Oilseed Rape = assay: Test C preemergence: oilseed rape; format: in vivo; settings: scale of 0 to 100, 0 is no effect, 100 is complete control
Source text: as §1, §2

[3] = test system: barnyardgrass (Echinochloa crus-galli); assay: Test C pre-/postemergence: barnyardgrass; format: in vivo; settings: Preemergence, 250 g ai/ha; scale 0 to 100, 0 no effect, 100 complete control
Source text: as §1
At the same time, plants selected from these crop and weed species and also barley (winter barley, Hordeum vulgare), canarygrass (Phalaris minor), chickweed (common chickweed, Stellaria media) windgrass (Apera spica-venti) and deadnettle (henbit deadnettle, Lamium amplexicaule) were planted in pots containing Redi-Earth® planting medium (Scotts Company, 14111 Scottslawn Road, Marysville, Ohio 43041) comprising spaghnum peat moss, vermiculite, wetting agent and starter nutrients and treated with postemergence applications of test chemicals formulated in the same manner. Plants ranged in height from 2 to 18 cm (1- to 4-leaf stage) for postemergence treatments.
as §2

[4] = test system: nutsedge, yellow (yellow nutsedge, Cyperus esculentus); assay: Test E pre-/postemergence: nutsedge, yellow; format: in vivo; settings: Preemergence, scale 0 to 100
Source text: (§3) Seeds of plant species selected from corn (Zea mays), soybean (Glycine max), velvetleaf (Abutilon theophrasti), lambsquarters (Chenopodium album), poinsettia, wild (wild poinsettia, Euphorbia heterophylla), pigweed, palmer (palmer pigweed, Amaranthus palmeri), waterhemp (common waterhemp, Amaranthus rudis), smartweed (ladysthumb smartweed, Polygonum persicaria), surinam grass (Brachiaria decumbens), crabgrass, large (large crabgrass, Digitaria sanguinalis), crabgrass, Brazil (Brazilian crabgrass, Digitaria horizontalis), panicum, fall (fall panicum, Panicum dichotomiflorum), foxtail, giant (giant foxtail, Setaria faberii), foxtail, green (green foxtail, Setaria viridis), goosegrass (Eleusine indica), johnsongrass (Sorghum halepense), ragweed (common ragweed, Ambrosia elation), barnyardgrass (Echinochloa crus-galli), sandbur (southern sandbur, Cenchrus echinatus), arrowleaf sida (Sida rhombifolia), ryegrass, Italian (Italian ryegrass, Lolium multiflorum), dayflower, (VA) (Virginia dayflower, Commelina virginica), field bindweed (Convolvulus arvensis), cocklebur (common cocklebur, Xanthium strumarium), morningglory (Ipomoea coccinea), nightshade (eastern black nightshade, Solanum ptycanthum), kochia (Kochia scoparia), nutsedge, yellow (yellow nutsedge, Cyperus esculentus) and beggarticks (hairy beggarticks, Bidens pilosa) were planted into a silt loam soil and treated preemergence with test chemicals formulated in a non-phytotoxic solvent mixture which included a surfactant. At the same time, plants selected from these crop and weed species were planted in pots containing a growing medium comprising spaghnum peat moss, vermiculite, wetting agent and starter nutrients and treated with postemergence applications of some of the test chemicals formulated in the same manner. Plants ranged in height from 2 to 18 cm for postemergence treatments (1- to 4-leaf stage).
as §2, with “14” for “13”, “21” for “15”, “E,” for “C,”

[5] = test system: crabgrass, large (large crabgrass, Digitaria sanguinalis); assay: Test E pre-/postemergence: crabgrass, large; format: in vivo; settings: Preemergence, scale 0 to 100
Source text: as §3
as §2, with “14” for “13”, “21” for “15”, “E,” for “C,”

[6] = Postemergence, 8 g ai/ha, scale 0 to 100
[7] = Postemergence, 16 g ai/ha, scale 0 to 100
[8] = Postemergence, 31 g ai/ha, scale 0 to 100
[9] = Postemergence, 62 g ai/ha, scale 0 to 100
[10] = Preemergence, 16 g ai/ha, scale 0 to 100 (0 no effect, 100 complete control)
[11] = Preemergence, 31 g ai/ha, scale 0 to 100 (0 no effect, 100 complete control)
[12] = Preemergence, 62 g ai/ha, scale 0 to 100
[13] = Preemergence, 125 g ai/ha, scale 0 to 100

Cc1nn(-c2ccc(C(F)(F)F)c(F)c2)nc1Cc1ccnc(C(F)(F)F)c1 [Compound 162]
Plant response rating, Waterhemp (Waterhemp [1]): 100 | Plant response rating, Corn (corn (Zea mays); Postemergence, 4 g ai/ha, scale 0 to 100): 5 | Plant response rating, Corn (corn (Zea mays); [6]): 5 | Plant response rating, Corn (corn (Zea mays); [7]): 10 | Plant response rating, Corn (corn (Zea mays); [8]): 10 | Plant response rating, Corn (corn (Zea mays); [9]): 10 | Plant response rating, Corn (corn (Zea mays); Preemergence, 4 g ai/ha, scale 0 to 100, 0 no effect, 100 complete control): 0 | Plant response rating, Corn (corn (Zea mays); Preemergence, 8 g ai/ha, scale 0 to 100, 0 no effect, 100 complete control): 0 | Plant response rating, Corn (corn (Zea mays); [10]): 0 | Plant response rating, Corn (corn (Zea mays); [11]): 0 | Plant response rating, Corn (corn (Zea mays); [12]): 0 | Plant response rating, Waterhemp (Waterhemp [2]; 125 g ai/ha): 100 | Plant response rating, Oilseed Rape (Oilseed Rape; 31 g ai/ha): 80 | Plant response rating, Oilseed Rape (Oilseed Rape; 62 g ai/ha): 100 | Plant response rating, Barnyardgrass [3]: 100

CCCc1nn(-c2ccc(C(F)(F)F)c(F)c2)nc1Oc1ccnc(C(F)(F)F)c1 [Compound 185]
Plant response rating, Oilseed Rape (Oilseed Rape; 62 g ai/ha): 85 | Plant response rating, Barnyardgrass [3]: 100

Cc1nn(-c2ccc(C(F)(F)F)cc2)nc1Cc1ccnc(C(F)(F)F)c1 [Compound 47, 4-[[5-methyl-2-[4-(trifluoromethyl)phenyl]-2H-1,2,3-triazol-4-yl]methyl]-2-(trifluoromethyl)pyridine]
Plant response rating: Nutsedge, Yellow ([4]; 16 g ai/ha): 0 | Plant response rating: Nutsedge, Yellow ([4]; 31 g ai/ha): 0 | Plant response rating: Nutsedge, Yellow ([4]; 62 g ai/ha): 10 | Plant response rating: Nutsedge, Yellow ([4]; 125 g ai/ha): 10 | Plant response rating: Nutsedge, Yellow ([4]; 250 g ai/ha): 35 | Plant response rating: Crabgrass, Large ([5]; 16 g ai/ha): 20 | Plant response rating: Crabgrass, Large ([5]; 31 g ai/ha): 75 | Plant response rating: Crabgrass, Large ([5]; 62 g ai/ha): 100 | Plant response rating: Crabgrass, Large ([5]; 125 g ai/ha): 100 | Plant response rating: Crabgrass, Large ([5]; 250 g ai/ha): 100

CCCc1nn(-c2ccc(F)cc2)nc1Cc1ccnc(C(F)(F)F)c1 [Compound 153]
Plant response rating, Waterhemp (Waterhemp [1]): 100 | Plant response rating, Corn (corn (Zea mays); [10]): 0 | Plant response rating, Corn (corn (Zea mays); [11]): 0 | Plant response rating, Corn (corn (Zea mays); [12]): 0 | Plant response rating, Corn (corn (Zea mays); [13]): 0 | Plant response rating, Corn (corn (Zea mays); Preemergence, 250 g ai/ha, scale 0 to 100): 10 | Plant response rating, Waterhemp (Waterhemp [2]; 125 g ai/ha): 100 | Plant response rating, Oilseed Rape (Oilseed Rape; 31 g ai/ha): 90 | Plant response rating, Oilseed Rape (Oilseed Rape; 62 g ai/ha): 95 | Plant response rating, Barnyardgrass [3]: 100

CCOc1nn(-c2ccc(Br)cc2)nc1Cc1ccnc(C(F)(F)F)c1 [Compound 189]
Plant response rating, Waterhemp (Waterhemp [1]): 100 | Plant response rating, Waterhemp (Waterhemp [2]; 125 g ai/ha): 100 | Plant response rating, Oilseed Rape (Oilseed Rape; 62 g ai/ha): 70

Cc1nn(-c2ccc(F)c(F)c2)nc1Oc1ccnc(C(F)(F)F)c1 [Compound 145]
Plant response rating, Corn (corn (Zea mays); [6]): 5 | Plant response rating, Corn (corn (Zea mays); [7]): 10 | Plant response rating, Corn (corn (Zea mays); [8]): 10 | Plant response rating, Corn (corn (Zea mays); [9]): 10 | Plant response rating, Corn (corn (Zea mays); Postemergence, 125 g ai/ha, scale 0 to 100): 10

CCc1nn(-c2ccc(F)cc2)nc1Oc1ccnc(C(F)(F)F)c1 [Compound 166]
Plant response rating, Waterhemp (Waterhemp [1]): 100 | Plant response rating, Waterhemp (Waterhemp [2]; 125 g ai/ha): 100 | Plant response rating, Waterhemp (Waterhemp [2]; 250 g ai/ha): 100 | Plant response rating, Oilseed Rape (Oilseed Rape; 62 g ai/ha): 50 | Plant response rating, Barnyardgrass [3]: 100

Cc1nn(-c2ccc(F)cc2)nc1Oc1ccnc(C(F)(F)F)c1 [Compound 129, 4-[[2-(4-fluorophenyl)-5-methyl-2H-1,2,3-triazol-4-yl]oxy]-2-(trifluoromethyl)pyridine]
Plant response rating: Nutsedge, Yellow ([4]; 8 g ai/ha): 0 | Plant response rating: Nutsedge, Yellow ([4]; 16 g ai/ha): 0 | Plant response rating: Nutsedge, Yellow ([4]; 31 g ai/ha): 0 | Plant response rating: Nutsedge, Yellow ([4]; 62 g ai/ha): 0 | Plant response rating: Nutsedge, Yellow ([4]; 125 g ai/ha): 20 | Plant response rating: Crabgrass, Large ([5]; 8 g ai/ha): 0 | Plant response rating: Crabgrass, Large ([5]; 16 g ai/ha): 10 | Plant response rating: Crabgrass, Large ([5]; 31 g ai/ha): 80 | Plant response rating: Crabgrass, Large ([5]; 62 g ai/ha): 100 | Plant response rating: Crabgrass, Large ([5]; 125 g ai/ha): 100

Cc1nn(-c2ccc(F)cc2)nc1Cc1ccnc(C(F)(F)F)c1 [Compound 16, 4-[[2-(4-fluorophenyl)-5-methyl-2H-1,2,3-triazol-4-yl]methyl]-2-(trifluoromethyl)pyridine]
Plant response rating: Nutsedge, Yellow ([4]; 8 g ai/ha): 0 | Plant response rating: Nutsedge, Yellow ([4]; 16 g ai/ha): 0 | Plant response rating: Nutsedge, Yellow ([4]; 31 g ai/ha): 0 | Plant response rating: Nutsedge, Yellow ([4]; 62 g ai/ha): 20 | Plant response rating: Nutsedge, Yellow ([4]; 125 g ai/ha): 20 | Plant response rating: Crabgrass, Large ([5]; 8 g ai/ha): 0 | Plant response rating: Crabgrass, Large ([5]; 16 g ai/ha): 5 | Plant response rating: Crabgrass, Large ([5]; 31 g ai/ha): 5 | Plant response rating: Crabgrass, Large ([5]; 62 g ai/ha): 90 | Plant response rating: Crabgrass, Large ([5]; 125 g ai/ha): 90

Fc1ccc(-n2nc(Cc3ccnc(C(F)(F)F)c3)c(OCC(F)(F)F)n2)cc1 [Compound 142]
Plant response rating, Corn (corn (Zea mays); [10]): 0 | Plant response rating, Corn (corn (Zea mays); [11]): 0 | Plant response rating, Corn (corn (Zea mays); [12]): 0 | Plant response rating, Corn (corn (Zea mays); [13]): 0
